# Measurements published in ChEMBL document CHEMBL3507680, “University of Dundee, Gates Library screen for HepG2 cell viability”.
# Test: Human HepG2 cell viability assay in 384 well format
# Format: toxicity, cell-based
# Design: dose 125 nL, time 70.5 hour; cytotoxicity at 70.5 h: concentration not given beside the values
# Details: HepG2 cells, read-out: Inhibition
row,SMILES,cytotoxicity at 70.5 h
1,CN(C)C(C(=O)N1CC(Oc2ccccc2F)C1)c1ccc(F)cc1 (centres undefined),-0.723%
2,COc1ccc(C(=O)N2CC[C@](C)(O)[C@H](C)C2)cc1N1CCOCC1,-8.2%
3,Cc1n[nH]c(C)c1CCC(=O)NCC1CCCN(C2CCCC2)C1 (centres undefined),30.3%
4,CCOc1cccc(C2CC(=O)NCc3nc(N4CCCC4)sc32)c1 (centres undefined),-3%
5,COCc1cc(N(C)CCC(O)c2ccccc2)n2nccc2n1 (centres undefined),-7.44%
6,COC[C@]1(O)CCN(Cc2cnc(N(C)C)nc2)CC1(C)C,-18.8%
7,Cc1ccccc1C(C(=O)NCCSC(C)C)N(C)C (centres undefined),-9.38%
8,Cc1cc(NCCc2nnc(N)s2)nc(-c2ccccc2)n1,-2.76%
9,c1cnc(N2CCC(c3nccn3CC3CC3)CC2)nc1,-2.28%
10,Cn1cc(C2=CCN(CCC(=O)NCc3ccc(Cl)cc3)CC2)cn1,-2.89%
11,CC(C)n1cc(-c2c(C#N)c(N)nc3c2COCC3)cn1,10.2%
12,Cc1ccc(C(=O)N2C[C@H]3CC[C@@H]2CN(S(=O)(=O)N(C)C)C3)c(O)c1,14.2%
13,CN1C[C@@H](n2cnc(-c3ccccc3)c2-c2ncc[nH]2)C[C@H]1C(=O)O,5.36%
14,CN1N=C(C(=O)N2CCCC(CCc3cccc(F)c3)C2)CCC1=O (centres undefined),-3.78%
15,COc1ccc(NC2CCCN(Cc3cnc(N(C)C)s3)C2)cc1OC (centres undefined),-12%
16,Cc1ccc2nc(CN3CCCCC3CCN3CCOCC3)cn2c1 (centres undefined),-10.8%
17,CC(c1ccccn1)N(C)Cc1ccc(CCC(C)(C)O)cc1 (centres undefined),-1.13%
18,CSCC1CCN(C(=O)Cn2ncc(N3CCCCC3)cc2=O)CC1,-16.3%
19,CC(C)CN1CC2(CCN(C(=O)c3cnccn3)CC2)CC1=O,-15%
20,CCc1cc(N(C)Cc2[nH]nc3c2CCC3)nc(N2CCOCC2)n1,-15.5%
21,Cc1cccc(-n2cc(CN3CCN(C)[C@@H]4CS(=O)(=O)C[C@@H]43)cn2)c1,-15.9%
22,O=C1CSc2ccccc2N1CC(=O)N1CCCCC1c1nccs1 (centres undefined),-8.8%
23,OCc1csc(N2CCCC(COc3cccc(F)c3)C2)n1 (centres undefined),-9.22%

row,SMILES,cytotoxicity at 70.5 h
1,Cn1ncc(N2CCOC(CCNC(=O)N3CCCCC3)C2)cc1=O (centres undefined),-6.9%
2,CN(CCCO)Cc1cc(Cl)ccc1OCC(O)CN1CCCCCC1 (centres undefined),-7.24%
3,CCN(C)C(=O)c1ccc(N2CCC(Oc3cccc(F)c3)CC2)nc1,-4.75%
4,Cc1ccc(OC2CCN(C(=O)C(C)Cn3cccn3)CC2)cc1 (centres undefined),0.0943%
5,COc1ccc(-n2nc(C)c(C(C)=O)c2C)cc1C(N)=O,2.1%
6,Cc1cn(Cc2nc(CC(C)C)nn2-c2ccccn2)c(=O)[nH]c1=O,-1.31%
7,O=C(Nc1ccc(F)cc1)C1CNCCN1C(=O)CCc1cccnc1 (centres undefined),-5.37%
8,Cn1ccnc1C1CCN(CCN2CCOCC2)CC1,-8.74%
9,O=C(N1CCOCC(O)C1)C1(c2ccc(Cl)cc2)CCC1 (centres undefined),21.7%
10,CCC(C)N(Cc1cccnc1)C(=O)CCSC (centres undefined),-8.8%
11,COC(=O)[C@@H](NC(=O)c1coc(COc2cccc(F)c2F)n1)C(C)C,-11.7%
12,CN(Cc1ccoc1)C(=O)C1CCN(C(=O)C2CCCC2)CC1,27.9%
13,CC(C)=CCCC1(C)CCC(=O)N(CCc2nc(N)cc(O)n2)C1 (centres undefined),-6.54%
14,COc1ccc(C(=O)N2CCC3(CCC(=O)N(C(C)C)C3)CC2)cc1C,-6.63%
15,NC1CCN(C(=O)c2cnc(Cc3c(Cl)cccc3Cl)nc2O)C1 (centres undefined),13.3%
16,CC(=O)c1c(C)nn(CC(=O)N2Cc3cnc(CC(C)C)nc3C2)c1C,-8.3%
17,O=C1CCCc2cc(S(=O)(=O)NCc3ccccn3)ccc2N1,-11%
18,CCCn1ncc(C(=O)NC2CCN(CC3CCCO3)CC2)c1C (centres undefined),25.6%
19,CNc1cc(-c2cccc(CN)c2)c2cc[nH]c2n1,-13.9%
20,CCCc1cnc(C)nc1N1CCC(Cn2cc(CO)nn2)CC1,-3.5%
21,O=C(NCc1ccccn1)C1CN(c2nc3ccccc3s2)CCN1 (centres undefined),-8.77%
22,COc1coc(CN2CCCC(CCc3c(F)cccc3F)C2)cc1=O (centres undefined),-2.32%
23,COc1ccc(Oc2nccc3occc23)cc1CN1CCCC1,-6.39%

row,SMILES,cytotoxicity at 70.5 h
1,Cc1cc2nc(C(C)C)cc(N3CCSCC3)n2n1,16.2%
2,COc1cccc(NC(=O)CN2CCN(S(C)(=O)=O)CC2)c1,-8.85%
3,CC(C)CN1CCc2[nH]cnc2C12CCN(C(=O)c1cncn1C)CC2,-5.88%
4,N#Cc1cccc(N2CCC3(CCC(=O)N(CCCO)C3)CC2)n1,-9.82%
5,CC(C)NC(=O)[C@@H]1C[C@@H](N)CN1C(=O)c1cc2c([nH]c1=O)CCCC2,-6.99%
6,CC(C)N1CCC[C@H]1C(=O)NCC1CCN(c2cnn(C)c(=O)c2)CC1,-8.1%
7,CCOC(=O)c1c(NC(=O)C2CCN(C(C)=O)CC2)sc(C)c1CC,-6.22%
8,Cc1ccc2nc(C)cc(C(=O)NC(C)c3nnn[nH]3)c2c1 (centres undefined),-0.653%
9,CCn1nc(C)c(NC(=O)CN(C)C(C)c2ccon2)c1C (centres undefined),3.79%
10,CN1CCN(Cc2ccc(-c3ccc4[nH]ccc4c3)nc2)CC1,-15.3%
11,Cc1noc(C)c1CN(C)C(=O)c1n[nH]c(N)c1-c1ccccc1,-5.4%
12,Cc1cnccc1-c1cc(NCCO)nc2[nH]ccc12,14.2%
13,CCNc1c(NC(=O)NC(C)C)c(=O)oc2ccccc12,-8.94%
14,Cc1c[nH]c(CN(C)C(=O)c2ccc(CSc3nnc[nH]3)o2)n1,-1.05%
15,CNS(=O)(=O)c1cc(C)c2[nH]c(=O)cc(C)c2c1,-16.4%
16,Cc1ccc(CCN[C@@H]2c3ccccc3C3(CCNCC3)[C@H]2O)s1,-2.07%
17,CN(C)C(=O)c1ccc2c(c1)N(C)C(CC(=O)NCc1ncc[nH]1)CO2 (centres undefined),-5.15%
18,O=C(NCc1ccco1)c1ccc(N2CCOCC2)cc1,0.191%
19,Cc1ccc2[nH]c(C(=O)NCCCn3ccnn3)c(C)c2c1,22.6%
20,COCCN(Cc1cnn(C)c1)c1nc(C)nc2sccc12,4.75%
21,Cc1ccc(CS(=O)(=O)NCc2ccco2)cc1,-4.19%
22,O=S(=O)(Cc1ccc(F)cc1)NCc1ccco1,-2.47%
23,Cc1cc(=O)[nH]c(=O)n1-c1ccccc1Br,-2.81%

row,SMILES,cytotoxicity at 70.5 h
1,Cn1c(N2CCOCC2)nc2cc(C(=O)N[C@@H]3CC[C@@H](N)C3)ccc21,-5.03%
2,COc1ccc([C@@H]2C[C@H](NC(C)=O)C[C@H](Cc3ccccc3)O2)cn1,-6.79%
3,CC(=O)Nc1ccc(Cl)c(C(=O)N(C)C(C)c2ccncn2)c1 (centres undefined),-0.237%
4,CC(=O)NCCNc1nc(C2CCCC2)nc2c1cnn2C,-5.79%
5,O=C(NCCN1CCCCC1)c1cccc(Cl)c1Cl,-8.61%
6,CSCCC(=O)NCc1cc2n(n1)CCN(C(=O)N(C)C)C2,-8.07%
7,O[C@]12CCNC[C@H]1CN(c1nccc3ccccc13)CC2,22.6%
8,O=C(c1scc2c1OCCO2)N1CCOC(Cc2ccc(F)cc2)C1 (centres undefined),-0.136%
9,O=C(c1ccc(Br)o1)N1CCN(Cc2ccc(F)cc2)CC1,7.95%
10,CC(C)N1CCCn2nc(C(=O)NCCc3c[nH]cn3)cc2C1,19.8%
11,CN1CCCN(CC(=O)N2CCc3[nH]c(-c4ccccc4)nc3C2)CC1,-1.3%
12,O=S(=O)(c1c(N2CCCC2)ccc2nonc12)N1CCCC1,-1.28%
13,Cc1nc(NC(=O)C(C)N2CCN(c3ccccc3F)CC2)sc1C (centres undefined),-2.47%
14,CCOC(=O)CC1CCCCN1C(=O)c1cc(C)oc1C (centres undefined),3.76%
15,COCc1cc(CNC(=O)c2cccc3c2OCC3)n[nH]1,-5.24%
16,Cc1cccc2sc(NC(=O)CN3CCC(C)CC3)nc12,-7.07%
17,Cc1cc(-c2nn3c(C)nnc3s2)n[nH]1,20%
18,Cc1cc(C(=O)NCCC(C)C)ccc1NS(C)(=O)=O,-11%
19,Cc1ccccc1N1CCCN(C(=O)c2nn(C)cc2Cl)CC1,27.7%
20,CC(=O)Nc1ncc(S(=O)(=O)N2CCCC(C)C2)s1 (centres undefined),-3.6%
21,CC(=O)Nc1ncc(S(=O)(=O)N2CCOCC2)s1,-1.73%
22,Cc1cc(C)n(CCCN(C)c2cc(N(C)C)ncn2)n1,-7.08%
23,COCC(Nc1ncnc2sc(C)c(C)c12)c1ccnn1C (centres undefined),-4.15%

row,SMILES,cytotoxicity at 70.5 h
1,Cc1cccc(OCCN2CCN(Cc3noc(C)n3)CC2)c1,-2.75%
2,Cc1nc(CN2CCN(CCOc3ccc(C(C)C)c(C)c3)CC2)no1,8.91%
3,Cc1nc(CC(=O)N2CCCC(n3ccnc3C(C)C)C2)cs1 (centres undefined),-6.07%
4,CC(C)c1nccn1C1CCCN(C(=O)CCc2cnn(C)c2)C1 (centres undefined),-10.7%
5,CC(C)c1nccn1C1CCCN(C(=O)CCNS(C)(=O)=O)C1 (centres undefined),-6.32%
6,Cc1nn(C)c(Cl)c1C1CCCN1Cc1noc(C2CC2)n1 (centres undefined),-9.55%
7,O=C(NCc1ccco1)N1CCN(Cc2ccc3c(c2)CCO3)CC1,-6.39%
8,Cc1nccc(-c2cccc(NCC(=O)N3CCOC(C)C3)c2)n1 (centres undefined),-3.45%
9,Cc1nccc(-c2cccc(NCC(=O)N3CCNC(=O)C3)c2)n1,-5.62%
10,Cc1noc(NC(=O)c2ccccc2)n1,-5.17%
11,Cc1nccc(-c2cccc(NCC(=O)NCC(=O)N3CCCC3)c2)n1,-3.17%
12,Cc1ncsc1C(=O)NCCNc1ncccn1,13.7%
13,Cc1noc(C)c1CN(C)C(=O)c1ccc(C(N)=O)nc1,-5.9%
14,COc1ccnc(N2CCN(C(=O)c3cccc(C#N)c3)CC2)n1,-7.44%
15,CCc1nnc2n1CCN(C(=O)c1cc(C)n(-c3ccccc3)c1C)C2,-4.27%
16,COc1ccc(CN(C)C(=O)NCc2c(C)cc(C)nc2OC)cc1,-5.78%
17,Cc1nn(C)c(N(C)C)c1CNCc1ccc2c(c1)OCO2,29.5%
18,Cc1ccccc1C(C)NC(=O)CSCC#N (centres undefined),12.8%
19,CCc1nc(C(=O)N2CCN(CC)CC2)nn1-c1ccccc1Cl,11.3%
20,CCc1nc(C(=O)N2CCN(C)CC2)nn1-c1ccccc1Cl,16.1%
21,CCOc1ccc2ccccc2c1CNCC1CCNCC1,9.2%
22,Cc1ccc(OCCCSC2=NCCN2)cc1,-3.22%
